These results are taken from ChEMBL document CHEMBL4017480, “Discovery and optimization of selective FGFR4 inhibitors via scaffold hopping” (Bioorg Med Chem Lett, 2017).

The target in data set [1] is Fibroblast growth factor receptor 1 (Homo sapiens, UniProt P11362). Description: Inhibition of recombinant human His-tagged FGFR1 cytoplasmic domain (308 to 731 residues) expressed in baculovirus expression system using tyr 04 as substrate measured within 60 mins by Z-LYTE assay.
Data set [2] in a line: Intrinsic clearance in human liver microsomes at 1 uM measured after 60 mins in presence of NADPH by LC-MS/MS analysis. It is filed as ADME, microsome. Conditions: read-out: CLH.
A short description of data set [3]: Stability in mouse plasma assessed as compound remaining at 2 uM measured after 2 hrs by LC-MS/MS analysis. The format is ADME, cell-free. The note with it: read-out: Stability.
Data set [4] is described as follows: Intrinsic clearance in mouse liver microsomes at 1 uM measured after 60 mins in presence of NADPH by LC-MS/MS analysis. The format is ADME, microsome. The note with it: read-out: CLH.
Data set [5] is described as follows: Stability in human plasma assessed as compound remaining at 2 uM measured after 2 hrs by LC-MS/MS analysis. It is filed as ADME, cell-free. The note with it: read-out: Stability.
Data set [6] has as its target Fibroblast growth factor receptor 4 (Homo sapiens, UniProt P22455). Description: Inhibition of recombinant human N-terminal His-tagged FGFR4 cytoplasmic domain […] expressed in baculovirus expression system using tyr 04 peptide as substrate measured within 90 mins by Z-LYTE assay.

Fibroblast growth factor receptor 1, sequence (P11362 whole entry, the tested form may be a part): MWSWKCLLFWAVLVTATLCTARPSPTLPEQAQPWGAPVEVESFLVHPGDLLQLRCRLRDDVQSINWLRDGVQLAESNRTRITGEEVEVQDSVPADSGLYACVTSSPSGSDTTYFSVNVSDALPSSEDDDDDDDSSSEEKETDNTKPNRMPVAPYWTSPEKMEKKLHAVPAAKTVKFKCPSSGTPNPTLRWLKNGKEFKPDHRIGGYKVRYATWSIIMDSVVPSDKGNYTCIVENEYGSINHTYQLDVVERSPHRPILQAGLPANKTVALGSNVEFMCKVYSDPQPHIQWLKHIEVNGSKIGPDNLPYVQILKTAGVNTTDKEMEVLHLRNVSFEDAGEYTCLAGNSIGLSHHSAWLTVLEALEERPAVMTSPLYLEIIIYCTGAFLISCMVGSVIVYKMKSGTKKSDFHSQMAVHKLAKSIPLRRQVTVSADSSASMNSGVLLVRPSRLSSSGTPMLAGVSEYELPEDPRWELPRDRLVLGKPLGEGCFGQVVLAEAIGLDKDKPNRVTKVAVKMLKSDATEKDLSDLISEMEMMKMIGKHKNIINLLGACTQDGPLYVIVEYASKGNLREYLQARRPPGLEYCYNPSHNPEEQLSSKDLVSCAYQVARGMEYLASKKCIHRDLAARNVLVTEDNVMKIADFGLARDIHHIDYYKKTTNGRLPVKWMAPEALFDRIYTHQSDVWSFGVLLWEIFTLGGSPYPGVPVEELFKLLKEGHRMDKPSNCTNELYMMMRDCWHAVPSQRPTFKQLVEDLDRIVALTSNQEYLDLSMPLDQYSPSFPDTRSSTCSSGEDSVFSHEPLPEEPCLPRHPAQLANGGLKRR
Fibroblast growth factor receptor 4, sequence (P22455 whole entry, the tested form may be a part): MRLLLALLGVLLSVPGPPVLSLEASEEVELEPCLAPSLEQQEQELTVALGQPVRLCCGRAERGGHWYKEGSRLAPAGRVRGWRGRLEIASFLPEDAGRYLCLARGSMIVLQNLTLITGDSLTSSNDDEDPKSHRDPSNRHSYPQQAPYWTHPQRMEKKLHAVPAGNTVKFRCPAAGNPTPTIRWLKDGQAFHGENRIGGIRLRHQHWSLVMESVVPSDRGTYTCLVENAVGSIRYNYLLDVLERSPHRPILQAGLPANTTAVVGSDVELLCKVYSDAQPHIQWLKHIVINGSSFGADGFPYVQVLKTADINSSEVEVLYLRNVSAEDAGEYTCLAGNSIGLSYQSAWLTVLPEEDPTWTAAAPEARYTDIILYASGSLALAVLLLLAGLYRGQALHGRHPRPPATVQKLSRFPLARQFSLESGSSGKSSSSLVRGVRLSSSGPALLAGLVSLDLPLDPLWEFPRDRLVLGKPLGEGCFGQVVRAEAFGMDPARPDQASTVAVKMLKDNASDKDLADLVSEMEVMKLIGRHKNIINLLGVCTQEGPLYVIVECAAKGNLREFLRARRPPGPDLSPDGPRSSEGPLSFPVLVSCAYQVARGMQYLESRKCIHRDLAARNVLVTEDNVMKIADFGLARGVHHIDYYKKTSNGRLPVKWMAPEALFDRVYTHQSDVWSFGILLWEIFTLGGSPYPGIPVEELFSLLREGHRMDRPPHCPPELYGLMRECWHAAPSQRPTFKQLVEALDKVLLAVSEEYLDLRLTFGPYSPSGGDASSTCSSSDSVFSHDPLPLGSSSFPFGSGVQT

Take `C=CC(=O)Nc1cc(N2CCN(CC)CC2)cc(C)c1Nc1ncc(OCc2c(F)c(OC)cc(OC)c2F)cn1`: the IC50 in data set [1] worked out at 2.9 µM. The CLint scaled at 1 µM stood at 120 mL/min/kg in data set [2] and 180 mL/min/kg in data set [4]. Further, in data set [3], the remaining at 2 h, 2 µM amounted to 0.1%.
For `C=CC(=O)N[C@H]1CCCC[C@H]1Nc1ncc(OCc2c(F)c(OC)cc(OC)c2F)cn1` (racemic), the IC50 in data set [1] worked out at 3.3 µM. Moreover, the figures for the CLint scaled at 1 µM in data set [2] and in data set [4] were 154 mL/min/kg and 2030 mL/min/kg, respectively. The remaining at 2 h, 2 µM in data set [3] and in data set [5] was 96% in each case.
On to `C=CC(=O)Nc1cccc(C)c1Nc1ncc(OCc2c(Cl)c(OC)cc(OC)c2Cl)cn1`, for which the remaining at 2 h, 2 µM in data set [3] stood at 0.2%.
`C=C(C)C(=O)Nc1cc(N2CCN(CC)CC2)cc(C)c1Nc1ncc(OCc2c(F)c(OC)cc(OC)c2F)cn1`: in data set [1], the IC50 is 4.8 µM. Also, the remaining at 2 h, 2 µM in data set [3] was found to be 0.4%.
In the case of `C=CC(=O)Nc1ccccc1Nc1ncc(OCc2c(F)c(OC)cc(OC)c2F)cn1`, in data set [1], the IC50 was 0.06 µM.
In the case of `C=CC(=O)Nc1cccc(C)c1Nc1ncc(OCc2cc(OC)cc(OC)c2)cn1`, the IC50 in data set [1] is more than 10 µM.
As for `C=CC(=O)N[C@H]1CCOC[C@H]1Nc1ncc(OCc2c(F)c(OC)cc(OC)c2F)cn1`, in data set [1], the IC50 was more than 10 µM. For the same compound, the CLint scaled at 1 µM in data set [2] worked out at 46 mL/min/kg; in data set [4], 564 mL/min/kg. Besides, the remaining at 2 h, 2 µM in data set [3] stood at 100%; in data set [5], 90%.
Consider `C=CC(=O)N[C@@H]1COC[C@@H]1Nc1ncc(OCc2c(F)c(OC)cc(OC)c2F)cn1`, for which the IC50 turned out to be 7.4 µM in data set [1] and 3.5 µM in data set [6].
Take `C=CC(=O)Nc1cc(N2CCN(C(C)=O)CC2)cc(C)c1Nc1ncc(OCc2c(F)c(OC)cc(OC)c2F)cn1`: the IC50 in data set [1] was 9.5 µM. Moreover, the CLint scaled at 1 µM was determined as 265 mL/min/kg in data set [2] and 220 mL/min/kg in data set [4]. Besides, the remaining at 2 h, 2 µM in data set [3] amounted to 0.3%.
In the case of `C=CC(=O)Nc1cccc(C)c1Nc1ncc(OC(C)c2c(Cl)c(OC)cc(OC)c2Cl)cn1` (configuration not stated), the IC50 in data set [1] and in data set [6] was more than 10 µM each time.
